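Assay format: 96-well plates, 48-hour exposure. Abbreviation: GI50, concentration required for 50% inhibition of growth. At the TGI there is no net growth.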
How the values were obtained:
Assay in all cases: NCI anticancer screen, dose series, 48 h
EKVX NSCLC = test system: EKVX NSCLC
HS 578T breast = test system: HS 578T breast
M14 melanoma = test system: M14 melanoma
MALME-3M melanoma = test system: MALME-3M melanoma
MCF7 breast = test system: MCF7 breast
MDA-MB-231 breast = test system: MDA-MB-231 breast
NCI-H226 lung = test system: NCI-H226 lung
OVCAR-3 ovarian = test system: OVCAR-3 ovarian
RXF 393 renal = test system: RXF 393 renal
BT-549 breast = test system: BT-549 breast

| Structure (SMILES) | TGI (EKVX NSCLC) | TGI (HS 578T breast) | TGI (M14 melanoma) | TGI (MALME-3M melanoma) | TGI (MCF7 breast) | TGI (MDA-MB-231 breast) | TGI (NCI-H226 lung) | TGI (OVCAR-3 ovarian) | TGI (RXF 393 renal) | TGI (BT-549 breast) | GI50 (EKVX NSCLC) | GI50 (HS 578T breast) | GI50 (MALME-3M melanoma) | GI50 (MCF7 breast) | GI50 (MDA-MB-231 breast) | GI50 (NCI-H226 lung) | GI50 (OVCAR-3 ovarian) | GI50 (RXF 393 renal) | GI50 (BT-549 breast) |
| --- | --- | --- | --- | --- | --- | --- | --- | --- | --- | --- | --- | --- | --- | --- | --- | --- | --- | --- | --- |
| CS(=O)(=O)OCCN(CCOS(C)(=O)=O)c1ccc(C=Nc2ccc(-c3csc(Cc4ccccc4)n3)cc2)c(Cl)c1 | > 100 µM | 76.7 µM | > 62.7 µM | > 72.8 µM | 50.1 µM | 75.6 µM | 1.79 µM | > 63.7 µM | 98.6 µM | – | – | – | – | – | – | – | – | – | – |
| O=C(NC(=S)Nc1ccc(Br)cc1)c1ccc2c(c1)Sc1ccccc1O2 | – | > 100 µM | > 100 µM | > 100 µM | > 100 µM | > 100 µM | > 100 µM | > 100 µM | – | > 100 µM | – | – | – | – | – | – | – | – | – |
| COc1ccccc1/C=C1\C(=O)N(C(=O)Cc2ccccc2)N=C1C | > 100 µM | – | > 100 µM | > 100 µM | – | – | > 100 µM | > 100 µM | – | – | – | – | – | – | – | – | – | – | – |
| O=C(Nc1ccccc1C(=O)NCc1ccccc1)/C(=C/c1ccccc1O)NC(=O)c1ccccc1 | > 100 µM | > 100 µM | > 100 µM | – | > 100 µM | > 100 µM | > 100 µM | > 100 µM | > 100 µM | – | – | – | – | – | – | – | – | – | – |
| CCC1(CC)C(=O)NC(=O)NC1=S | > 100 µM | – | > 100 µM | > 100 µM | – | – | > 100 µM | > 100 µM | > 100 µM | – | – | – | – | – | – | – | – | – | – |
| COc1ccc(C2=C(OC(C)=O)c3cccn3-c3ccc(Cl)cc3S2)cc1 | > 10 µM | – | > 10 µM | > 10 µM | > 10 µM | > 10 µM | – | – | > 10 µM | – | – | – | – | – | – | – | – | – | – |
| O=[N+]([O-])c1ccc2c(c1)nc1n2C(c2c(F)cccc2F)SC1 (stereo unspecified) | > 100 µM | > 100 µM | > 100 µM | > 100 µM | > 100 µM | > 100 µM | – | > 100 µM | > 100 µM | > 100 µM | – | – | – | – | – | – | – | – | – |
| CN(C)N1C(=O)C(=O)N(c2cccc3ccccc23)C1=O | > 10 µM | > 10 µM | > 10 µM | > 10 µM | > 10 µM | > 10 µM | > 10 µM | > 10 µM | > 10 µM | – | – | – | – | – | – | – | – | – | – |
| O=C1c2c(c3c4cc(F)ccc4oc3c3[nH]c4ccccc4c23)C(=O)N1O | 65.8 µM | 9.59 µM | – | 6.46 µM | > 100 µM | 21.6 µM | 73.8 µM | 7.96 µM | 6.85 µM | – | 6.85 µM | 2.53 µM | 1.37 µM | 0.596 µM | 2.68 µM | 3.85 µM | 2.53 µM | 1.92 µM | – |
| CCC1(O)C(=O)OCc2c1cc1n(c2=O)Cc2cc3cc4c(cc3nc2-1)OCO4 (stereo unspecified) | 4.27 µM | > 100 µM | 0.0632 µM | 0.807 µM | > 12.8 µM | – | 0.0252 µM | 0.589 µM | 0.0578 µM | > 100 µM | – | – | – | – | – | – | – | – | < 0.01 µM |
| CN1C/C(=C\c2cccs2)C2=NN(c3ccccc3)C(c3cccs3)C2C1 (stereo unspecified) | > 100 µM | > 100 µM | > 68.3 µM | > 51.1 µM | > 100 µM | 98.7 µM | > 100 µM | > 21.8 µM | – | > 100 µM | – | – | – | – | – | – | – | – | – |
| COc1ccc2c(c1)/C(=C\c1c(Cl)nc3n1CCS3)C(=O)N2 | 77 µM | 44.1 µM | > 100 µM | > 100 µM | 48.5 µM | 27.2 µM | – | 17.8 µM | 9.91 µM | 44 µM | – | – | – | – | – | – | – | – | – |
| Nc1nnc(N)n1N | > 100 µM | – | > 100 µM | > 100 µM | – | – | > 100 µM | – | > 100 µM | – | – | – | – | – | – | – | – | – | – |
| CCC(C)C(Nc1c2ccccc2nc2c(C(=O)NCCN(C)C)cccc12)C(=O)O (stereo unspecified) | 77 µM | 51.6 µM | 44.1 µM | 35.1 µM | > 100 µM | 65.5 µM | 32.1 µM | > 100 µM | – | – | – | – | – | – | – | – | – | – | – |
| COc1cc(/C=C2\C(=O)N(c3cccc(NC(C)=O)c3)C(c3ccccc3)S2(=O)=O)cc(OC)c1OC (stereo unspecified) | > 100 µM | – | > 100 µM | > 100 µM | > 100 µM | > 100 µM | > 100 µM | > 100 µM | > 100 µM | > 100 µM | – | – | – | – | – | – | – | – | – |
| CC(O)C(CO)NC(=O)C1CSSCC(NC(=O)C(N)Cc2ccccc2)C(=O)NC(Cc2ccccc2)C(=O)NC(Cc2c[nH]c3ccccc23)C(=O)NC(CCCCN)C(=O)NC(C(C)O)C(=O)N1 (stereo unspecified) | > 100 µM | – | > 100 µM | > 100 µM | > 100 µM | > 100 µM | > 100 µM | > 100 µM | > 100 µM | – | – | – | – | – | – | – | – | – | – |
| O=C1C=C(NCCc2ccc(O)c([N+](=O)[O-])c2)C(=O)c2[nH]cnc21 | 72.2 µM | > 100 µM | 32.3 µM | 17.6 µM | 78.1 µM | > 100 µM | – | 46.1 µM | – | – | – | – | – | – | – | – | – | – | – |

Source: PubChem BioAssay (NCI)
